According to patent US7982047B2, “Derivatives of 1,3-diones having a herbicidal activity” (Isagro Ricerca S.r.l., priority 2003, dated 2011):

Experiments:
Stellaria media [1] = test: Pre-emergence herbicidal activity; type: in vivo; details: 500 g/ha, evaluated fifteen days after the treatment, damage vs blank
Protocol: (§1) Determination of the Herbicidal Activity and Phyto-Toxicity in Pre-Emergence The herbicidal activity of the compounds of the invention in pre-emergence was evaluated according to the following operative procedures. The plant species of interest (weeds or crops) were sown in pots with an upper diameter of 10 cm, a height of 10 cm and containing sandy soil. 10 pots were used for each plant species. Water was added to each pot in such a quantity as to germinate the seeds. The pots were divided into two groups, each containing 5 pots for each weed or crop. After one day from the sowing, the first set of pots was treated with a hydro-acetonic dispersion containing acetone at 10% in volume, the product under evaluation at the desired concentration and Tween 20 at 0.5%. The second set was treated with a hydro-acetonic solution only, containing acetone at 10% in volume and Tween 20 at 0.5%, and was used as comparison (blank). All pots were kept under observation in a conditioned environment under the following conditions: • temperature: 24° C.; • relative humidity: 60%; • photoperiod: 16 hours; • light intensity: 10000 lux. The pots were uniformly watered in order to ensure a sufficient humidity degree for a good development of the plants. Fifteen days after the treatment, the herbicidal activity was evaluated on the basis of the following values, which refer to the damage percentage tested on the treated plants, with respect to the non-treated plants (blank): [table]

Chenopodium album [2] = test: Pre-emergence herbicidal activity; type: in vivo; details: 500 g/ha, evaluated fifteen days after the treatment, damage vs blank
Protocol: as §1

Abutilon theofrasti [3] = test: Pre-emergence herbicidal activity; type: in vivo; details: 500 g/ha, evaluated fifteen days after the treatment, damage vs blank
Protocol: as §1

Solanum nigrum [4] = test: Pre-emergence herbicidal activity; type: in vivo; details: 500 g/ha, evaluated fifteen days after the treatment, damage vs blank
Protocol: as §1

Amaranthus retroflexus = test: Pre-emergence herbicidal activity; type: in vivo; details: 500 g/ha, evaluated fifteen days after the treatment, damage vs blank
Protocol: as §1

Portulaca oleracea [5] = test: Pre-emergence herbicidal activity; type: in vivo; details: 500 g/ha, evaluated fifteen days after the treatment, damage vs blank
Protocol: as §1

Ipomea purpurea = test: Pre-emergence herbicidal activity; type: in vivo; details: 500 g/ha, evaluated fifteen days after the treatment, damage vs blank
Protocol: as §1

Chenopodium album [6] = test: Post-emergence herbicidal activity; type: in vivo; details: 500 g/ha, evaluated fifteen days after the treatment, damage vs blank
Protocol: (§2) Determination of the Herbicidal Activity and Phyto-Toxicity in Post-emergence The herbicidal activity of the compounds of the invention in post-emergence was evaluated according to the following operative procedures. The plant species of interest (weeds or crops) were sown in pots with an upper diameter of 10 cm, a height of 10 cm and containing sandy soil. 10 pots were used for each plant species. Water was added to each pot in such a quantity as to germinate the seeds. The pots were divided into two groups, each containing 5 pots for each weed or crop. Fifteen days after sowing (ten, in the case of wheat), when the weeds and crops, according to the species, were 10-15 cm high, the first set of pots was treated with a hydro-acetonic dispersion containing acetone at 10% in volume, the product under evaluation at the desired concentration and Tween 20 at 0.5%. The second set was treated with a hydro-acetonic solution only, containing acetone at 10% in volume and Tween 20 at 0.5%, and was used as comparison (blank). All pots were kept under observation in a conditioned environment under the following conditions: • temperature: 24° C.; • relative humidity: 60%; • photo-period: 16 hours; • light intensity: 10000 lux. The pots were uniformly watered every other day so as to ensure a humidity degree sufficient for a good development of the plants. The herbicidal activity was evaluated fifteen days after the treatment, on the basis of the following values which refer to the percentage of damage tested on the treated plants with respect to the non-treated plants (blank): [table]

Abutilon theofrasti [7] = test: Post-emergence herbicidal activity; type: in vivo; details: 500 g/ha, evaluated fifteen days after the treatment, damage vs blank
Protocol: as §2

Solanum nigrum [8] = test: Post-emergence herbicidal activity; type: in vivo; details: 500 g/ha, evaluated fifteen days after the treatment, damage vs blank
Protocol: as §2

Galium aparine [9] = test: Pre-emergence herbicidal activity; type: in vivo; details: 500 g/ha, evaluated fifteen days after the treatment, damage vs blank
Protocol: as §1

Stellaria media [10] = test: Post-emergence herbicidal activity; type: in vivo; details: 500 g/ha, evaluated fifteen days after the treatment, damage vs blank
Protocol: as §2

Portulaca oleracea [11] = test: Post-emergence herbicidal activity; type: in vivo; details: 500 g/ha, evaluated fifteen days after the treatment, damage vs blank
Protocol: as §2

Galium aparine [12] = test: Post-emergence herbicidal activity; type: in vivo; details: 500 g/ha, evaluated fifteen days after the treatment, damage vs blank
Protocol: as §2

**Q.** Which melting point does the source give for `CS(=O)(=O)c1ccc(C(=O)C(C(=O)C2CC2)c2ccc([N+](=O)[O-])cc2[N+](=O)[O-])c(Cl)c1` (stereo not shown) here?
**A.** The melting point was 67 °C.

**Q.** For `CS(=O)(=O)c1ccc(C(=O)C(C(=O)C2CC2)c2nnc(C(F)(F)F)s2)c(Cl)c1` (stereo not shown) [Compound No 2918, 1-[2-chloro-4-(thylsulphonyl)phenyl]-3-cyclopropyl-2-(5-trifluoromethyl-1,3,4-thiadiazol-2-yl)propane-1,3-dione], which melting point is on record?
**A.** Its melting point is 185 °C.

**Q.** What does the source list for `Cn1nnnc1C(C(=O)c1ccc(S(C)(=O)=O)cc1Cl)C(=O)C1CC1` (stereo not shown) [Compound N^o 7, 1-[2-chloro-4-(methylsulphonyl)phenyl]-3-cyclopropyl-2-(1-methyl-1H-tetrazol-5-yl)propane-1,3-dione]?
**A.** Pre-emergence herbicidal activity SM (Stellaria media [1]): 5 (91% damage - death of the plant.); Pre-emergence herbicidal activity CA (Chenopodium album [2]): 5 (91% damage - death of the plant.); Pre-emergence herbicidal activity AT (Abutilon theofrasti [3]): 5 (91% damage - death of the plant.); Pre-emergence herbicidal activity SN (Solanum nigrum [4]): 5 (91% damage - death of the plant.); Pre-emergence herbicidal activity AR (Amaranthus retroflexus): 5 (91% damage - death of the plant.); Pre-emergence herbicidal activity PO (Portulaca oleracea [5]): 5 (91% damage - death of the plant.)

**Q.** What does the source list for `Cc1noc(C(C(=O)c2ccc(S(C)(=O)=O)cc2Cl)C(=O)C2CC2)n1` (stereo not shown) [Compound N^o 11, 1-[2-chloro-4-(methylsulphonyl)phenyl]-3-cyclopropyl-2-(3-methyl-1,2,4-oxadiazol-5-yl)propane-1,3-dione]?
**A.** Pre-emergence herbicidal activity CA (Chenopodium album [2]): 5 (91% damage - death of the plant.); Pre-emergence herbicidal activity IP (Ipomea purpurea): 5 (91% damage - death of the plant.); Pre-emergence herbicidal activity AT (Abutilon theofrasti [3]): 5 (91% damage - death of the plant.); Pre-emergence herbicidal activity PO (Portulaca oleracea [5]): 5 (91% damage - death of the plant.); Post-emergence herbicidal activity CA (Chenopodium album [6]): 5 (91% damage - death of the plant.); Post-emergence herbicidal activity AT (Abutilon theofrasti [7]): 5 (91% damage - death of the plant.); Post-emergence herbicidal activity SN (Solanum nigrum [8]): 5 (91% damage - death of the plant.)

**Q.** Which melting point does the source give for `CS(=O)(=O)c1ccc(C(=O)C(C(=O)C(F)(F)F)c2ccccn2)c(Cl)c1` (stereo not shown) [Compound N-616, 1-[2-chloro-4-(methylsuiphonyl)phenyl]-2-(pyridin-2-yl)-4,4,4-trifluorobutane-1,3-dione] here?
**A.** The melting point was 189 °C.

**Q.** Which “Pre-emergence herbicidal activity SM” value (Stellaria media [1]) does the source give for `Cn1nnc(C(C(=O)c2ccc(S(C)(=O)=O)cc2Cl)C(=O)C2CC2)n1` (stereo not shown) [Compound N^o 6, 1-[2-chloro-4-(methylsulphonyl)phenyl]-3-cyclopropyl-2-(2-methyl-2H-tetrazol-5-yl)propane-1,3-dione] here?
**A.** The value was 5 (91% damage - death of the plant.).

**Q.** What about the “Pre-emergence herbicidal activity CA” value (Chenopodium album [2]) of the same compound?
**A.** Its value is 5 (91% damage - death of the plant.).

**Q.** What about the “Pre-emergence herbicidal activity IP” value (Ipomea purpurea) of the same compound?
**A.** The value was 5 (91% damage - death of the plant.).

**Q.** And the “Pre-emergence herbicidal activity AT” value (Abutilon theofrasti [3])?
**A.** The value was 5 (91% damage - death of the plant.).

**Q.** What about the “Pre-emergence herbicidal activity SN” value (Solanum nigrum [4]) of the same compound?
**A.** The value was 5 (91% damage - death of the plant.).

**Q.** And the “Pre-emergence herbicidal activity AR” value (Amaranthus retroflexus)?
**A.** The value was 5 (91% damage - death of the plant.).

**Q.** And the “Pre-emergence herbicidal activity PO” value (Portulaca oleracea [5])?
**A.** Its value is 5 (91% damage - death of the plant.).

**Q.** And the “Pre-emergence herbicidal activity GA” value (Galium aparine [9])?
**A.** Its value is 5 (91% damage - death of the plant.).

**Q.** And the “Post-emergence herbicidal activity SM” value (Stellaria media [10])?
**A.** The value was 5 (91% damage - death of the plant.).

**Q.** And the “Post-emergence herbicidal activity CA” value (Chenopodium album [6])?
**A.** Its value is 5 (91% damage - death of the plant.).

**Q.** What about the “Post-emergence herbicidal activity AT” value (Abutilon theofrasti [7]) of the same compound?
**A.** The value was 5 (91% damage - death of the plant.).

**Q.** And the “Post-emergence herbicidal activity SN” value (Solanum nigrum [8])?
**A.** The value was 5 (91% damage - death of the plant.).

**Q.** And the “Post-emergence herbicidal activity PO” value (Portulaca oleracea [11])?
**A.** The value was 5 (91% damage - death of the plant.).

**Q.** And the “Post-emergence herbicidal activity GA” value (Galium aparine [12])?
**A.** Its value is 5 (91% damage - death of the plant.).

**Q.** With `CS(=O)(=O)c1ccc(C(=O)C(C(=O)C2CC2)n2cncn2)c(Cl)c1` (stereo not shown) [Compound No 460, 1-[2-chloro-4-(methylsulphonyl)phenyl]-3-cyclopropyl-2-(1,2,4-triazol-1-yl)propane-1,3-dione] as the compound, how does the melting point read?
**A.** Its melting point is 162 °C.
